Data from patent US11684675B2, “Dimeric collagen hybridizing peptides and methods of using” (University of Utah Research Foundation, priority 2015, dated 2023).

Experiments:
[1] = CD refolding (triple helix assembly) at 10° C. monitored at 225 nm; assay type: physicochemical
Procedure: Conversion was assumed to be at 100% after 96 h incubation at 4° C., and max trimer concentration was measured via CD ellipticity at 10° C. Samples were preheated to 80° C. in the sample cuvette for 10 min before being transferred directly to the sample holder held at a constant 10° C. Sample measurement began immediately. Initial time point for analysis was determined by measuring time for a blank (lx PBS) to thermally equilibrate in these conditions.
For all peptides, conversion was assumed to be at 100% after 96 h incubation at 4° C., and max trimer concentration was measured via CD ellipticity at 10° C. Samples were preheated to 80° C. in the sample cuvette for 10 min before being transferred directly to the sample holder held at a constant 10° C. Sample measurement began immediately. Initial time point for analysis was determined by measuring time for a blank (1×PBS) to thermally equilibrate in these conditions. This was set as the zero point for all peptides, as the large jump in CD due to temperature makes the initial jump irresolvable. (A) Rate of assembly of CHP 9 (60, 30, and 15 μM), over 2 h, monitored at 225 nm. (B) Rate of assembly of CHP 9d (30, 15, and 7.5 μM, corresponding to same CHP strand concentration from panel A), over 2 h, monitored at 225 nm. (C) Rate of assembly of CHP 6 (150 and 75 μM), over 2 h, monitored at 225 nm.
FIGS. 12A and 12B show CD refolding at 10° C. of CMPs monitored at 225 nm. CMPs were heated to 80° C. for 5 minutes before being placed into the CD and initial 2 min of monitored data was removed to eliminate thermal transition. Signal was normalized to that of a fully folded peptide.
(§1) Circular Dichroism: Circular Dichroism (CD) was measured for all peptides at 225 nm. Melting curves were taken on peptides between 10 and 80° C. at a heating rate of 0.5° C./min, with pauses at each 1° C. Refolding experiments were performed after peptide solutions were incubated at 4° C. for at least 12 hours. Concentrations were normalized to strand concentration.

[2] = Triple helix melting point (Tm) by circular dichroism at 225 nm; assay type: physicochemical; conditions: for Tm (° C.): triple helix melting
Procedure: FIGS. 5A, 5B, 5C, and 5D show the thermal denaturation of fully assembled CHPs and subsequent cooling to initial temperature. Samples were heated at 1° C./min from their initial temperature final temperature of 90° C. Sample was then cooled at 1° C./min to the starting temperature. (A) Thermal denaturation and partial reassembly of CHP CF-6d (150 μM) monitored at 225 nm. Sample was measured from 4° C. to 90° C. (B) Thermal denaturation and partial reassembly of CHP […] (75 μM, corresponding to 150 μM strand concentration) monitored at 225 nm. Sample was measured from 4° C. to 90° C. (C) Thermal denaturation and partial reassembly of CHP CF-9 (150 μM) monitored at 225 nm. Sample was measured from 10° C. to 90° C. (D) Thermal denaturation and partial reassembly of CHP CF-9d (75 μM, corresponding to 150 μM strand concentration) monitored at 225 nm. Sample was measured from 10° C. to 90° C.
FIGS. 11A and 11B show the First Derivative of mean residue ellipticity (MRE) at 225 nm in CD. […] There is no significant change in melting point between the monomeric and dimeric forms of the same peptide.
as §1

melting point ([2]; Example 3): 38 °C
Tm (° C.) ([2]; Table 1): 38 (SEQ ID NO: 58) ° C.
Tm (° C.) ([2]; Table 2): 38 (SEQ ID NO: 58) ° C.
Substance: [(GPO)6G3)2KG [6d]
refolding after two hours of incubation ([1]; 10° C., same strand concentration): almost completely refolded in two hours
time at which half refolded ([1]; CD refolding, 37.5 μM): 10 min
